Experimental data: ChEMBL document CHEMBL1135961, “Synthesis and biological activity of 8beta-substituted hydrocodone indole and hydromorphone indole derivatives” (Bioorg Med Chem Lett, 2002)

What was measured:
Mu-type opioid receptor [1] = target: T1, Mu-type opioid receptor (Cavia porcellus, UniProt P97266); test: Binding affinity for mu opioid receptor by displacing DAMGO was determined in [35S]-GTP gamma-S binding assay; Inactive; assay type: functional
[2] = target: Mu-type opioid receptor (Homo sapiens) (UniProt P35372); test: Selectivity determined for mu opioid receptor to that of delta opioid receptor
Mu-type opioid receptor (Homo sapiens), sequence (P35372 whole entry): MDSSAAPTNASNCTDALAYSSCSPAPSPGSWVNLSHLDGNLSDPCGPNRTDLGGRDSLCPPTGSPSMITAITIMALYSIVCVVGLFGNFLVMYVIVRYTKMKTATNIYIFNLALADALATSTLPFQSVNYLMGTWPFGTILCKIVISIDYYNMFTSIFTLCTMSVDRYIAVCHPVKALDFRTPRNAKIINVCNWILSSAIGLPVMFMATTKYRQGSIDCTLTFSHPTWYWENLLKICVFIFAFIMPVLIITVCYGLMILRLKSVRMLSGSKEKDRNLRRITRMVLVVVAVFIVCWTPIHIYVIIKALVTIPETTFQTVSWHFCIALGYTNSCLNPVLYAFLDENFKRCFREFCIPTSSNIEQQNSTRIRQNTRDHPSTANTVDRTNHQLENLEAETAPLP

[3] = target: T2, Kappa-type opioid receptor (Cavia porcellus, UniProt P41144); test: Binding affinity for kappa opioid receptor by displacing U-69,593 was determined in [35S]-GTP gamma-S binding assay; Inactive; assay type: functional
T2 sequence (P41144 whole entry): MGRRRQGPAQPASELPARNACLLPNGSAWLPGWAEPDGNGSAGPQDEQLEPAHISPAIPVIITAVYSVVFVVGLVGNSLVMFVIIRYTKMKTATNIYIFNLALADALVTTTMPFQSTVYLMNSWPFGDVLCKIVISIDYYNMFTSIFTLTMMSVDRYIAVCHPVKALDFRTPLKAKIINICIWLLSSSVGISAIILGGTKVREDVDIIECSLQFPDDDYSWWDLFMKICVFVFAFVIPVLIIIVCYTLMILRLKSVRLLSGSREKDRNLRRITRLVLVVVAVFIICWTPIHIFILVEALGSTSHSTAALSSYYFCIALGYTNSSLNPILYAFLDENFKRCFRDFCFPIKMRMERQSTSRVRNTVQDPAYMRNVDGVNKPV

Mu-type opioid receptor [4] = target: T1, Mu-type opioid receptor; test: Binding affinity for mu opioid receptor by displacing DAMGO was determined in [35S]GTP gamma-S binding assay; assay type: functional
[5] = target: Mu-type opioid receptor (Homo sapiens) (UniProt P35372); test: Selectivity for mu to that of delta opioid receptor was determined in [35S]-GTP gamma-S binding assay
[6] = target: T2, Kappa-type opioid receptor; test: Binding affinity for kappa opioid receptor by displacing U-69,593 was determined in [35S]GTP gamma-S binding assay; assay type: functional

T1 sequence (P97266 whole entry): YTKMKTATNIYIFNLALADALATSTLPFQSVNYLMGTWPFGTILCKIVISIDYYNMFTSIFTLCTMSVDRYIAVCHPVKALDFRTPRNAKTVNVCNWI

| Compound | Ki (Mu-type opioid receptor [1]) [nM] | Ratio [2] | Ki [3] [nM] | Ki (Mu-type opioid receptor [4]) [nM] | Ratio [5] | Ki [6] [nM] |
| --- | --- | --- | --- | --- | --- | --- |
| COc1ccc2c3c1O[C@H]1c4[nH]c5ccccc5c4CC4C(C2)N(C)CCC341 (some centres not stated) | > 600 | > 53 | > 350 | – | – | – |
| CCCC[C@H]1c2c([nH]c3ccccc23)[C@@H]2Oc3c(OC)ccc4c3C23CCN(C)C(C4)C13 (some centres not stated) | > 600 | > 12 | > 350 | – | – | – |
| COc1ccc2c3c1O[C@H]1c4[nH]c5ccccc5c4[C@H](C)C4C(C2)N(C)CCC341 (some centres not stated) | > 600 | > 177 | > 350 | – | – | – |
| C=CC(C)N1CCC23c4c5ccc(O)c4O[C@H]2c2[nH]c4ccccc4c2[C@H](C)C3C1C5 (some centres not stated) | – | 120 | – | – | – | – |
| CCCC[C@H]1c2c([nH]c3ccccc23)[C@@H]2Oc3c(O)ccc4c3C23CCN(C)C(C4)C13 (some centres not stated) | – | 50 | – | 561 | 12 | 272 |
| C[C@H]1c2c([nH]c3ccccc23)[C@@H]2Oc3c(O)ccc4c3C23CCN(C)C(C4)C13 (some centres not stated) | > 600 | 322 | – | – | – | 398 |
| C[C@H]1c2c([nH]c3ccccc23)[C@@H]2Oc3c(O)ccc4c3C23CCN(CC2CC2)C(C4)C13 (some centres not stated) | – | 29 | – | – | – | – |
| CN1CC[C@]23c4c5ccc(O)c4O[C@H]2c2[nH]c4ccccc4c2C[C@H]3[C@H]1C5 | – | 296 | – | 202 | 14 | 731 |
